Where a name gives a salt, the structure may show the parent alone. Read-outs that look alike come from different tables or passages of the source.
How the values were obtained:
[1] = Inhalation Kill (animals); format: in vivo; settings: Table XVI
Protocol: Toxicity tests were performed on commercially available (meth) acrylate oligomers and diluents and on commercially available vinyl ether and maleate diluents.

[2] = not given; remark: listed apart in the source
[3] = Viscosity (Brookfield viscometer); format: physicochemical; settings: 25° C., product as prepared
Protocol: The viscosity, expressed in pascal seconds (Pa s), was measured using a Brookfield Model RVTD viscometer operated in accordance with the instructions provided therewith. The temperature of each sample tested was 25° C.
The viscosity of the saturated ester oligomers having maleate end groups was determined utilizing a Brookfield RTV viscometer.

Compound | Inhalation Kill [1] | Skin Irritation (Table XVI, max. = 8) | Eye Irritation ([2]; Table XVI, max. = 10) | Skin Irritation (in vivo) | Eye Irritation ([2]; in vivo) | viscosity [3] | viscosity ([3]; listed as Component 3)
C=CC(=O)OCCCCCCOC(=O)C=C [1,6-hexanediol diacrylate] | 0 of 6 | 3 | 2 | – | – | – | –
C=CC(=O)OCCO [2-hydroxyethyl acrylate] | 1 of 6 | 6 | 9 | – | – | – | –
C=CC(=O)OCCOc1ccccc1 [2-phenoxyethyl acrylate] | 0 of 6 | 3 | 1 | – | – | – | –
CCOC(=O)/C=C\C(=O)OCC [Diethyl maleate] | – | mild | mild | – | – | – | –
C=CC(=O)OCCOCCOC(=O)C=C [Diethyleneglycol diacrylate] | 0 of 6 | 5 | 9 | – | – | – | –
COC(=O)/C=C\C(=O)OC [Dimethyl maleate] | – | – | – | 5.47 | moderate | – | –
CCCCOC(=O)/C=C\C(=O)OCCCC [Dubutyl maleate] | – | mild | – | – | – | – | –
C=COCCCCOC(=O)/C=C\C(=O)OCC [Example 1, 4-vinyloxybutyl ethyl maleate] | – | – | – | – | – | about 36 cP | 36 cP
C=CC(=O)OCC(C)(C)COC(=O)C=C [Neopentylglycol diacrylate] | 1 of 6 | 5 | 8 | – | – | – | –
C=CC(=O)OCC(CO)(COC(=O)C=C)COC(=O)C=C [Pentaerythritol triacrylate] | 0 of 6 | 2 | 10 | – | – | – | –

Source: US5334456A, “Free-radical curable compositions” (priority 1992, dated 1994)
